The values that follow come from patent US20060251717A1, “Memantine Oral Dosage Forms” (priority 2003, published 2006).

This data set is described as follows: Administration of memantine in 2 mg weekly increments to a patient suffering from glaucoma, tolerance observed. The class given is in vivo. To be noted: 2 mg tablet for one week. As to the method:
In certain cases, the initial administration of 5 mg of memantine, or the increase in the dosage by 5 mg increments, may be more than can be tolerated by the patient. […] The term adverse event refers to any undesirable side effect or toxic effect associated with memantine. In relation to embodiments of this type, it is preferable that the dose of memantine is increase by an increment of about 0.25 to about 0.5 mg each day until the maintenance dose is reached.
To a patient suffering from glaucoma, is administered a tablet comprising 2 mg of memantine is administered for one week. The patient then receives a tablet comprising a 4 mg dose for one week. The dose is increased by 2 mg each week until a 10 mg dose is reached at the beginning of the fifth week. […] The tablet comprising 10 mg of memantine is administered daily for as long as the drug is needed.
To a patient suffering from glaucoma, is administered a tablet comprising 2 mg of memantine is administered for one week. The patient then receives a tablet comprising a 4 mg dose for one week. The dose is increased by 2 mg each week until a 20 mg dose is reached at the beginning of the tenth week. […] The tablet comprising 20 mg of memantine is administered daily for as long as the drug is needed.

SMILES strings stand for the structures.

Regarding `CC12CC3CC(C)(C1)CC(N)(C3)C2` [memantine], the “tolerance of the drug” value (dose increased by 2 mg each week until 10 mg at beginning of fifth week, first four weeks of administration) is listed as “improved tolerance” and the “tolerance of the drug” value (dose increased by 2 mg each week until 20 mg at beginning of tenth week, first nine weeks of administration) is on record as “improved tolerance”.
